Assay results reported in patent publication US4499269A, “Fused 1,3,5-triazines” (Fisons plc, priority 1982, dated 1985).

How the values were obtained:
rejection of skin grafts = experiment: Rejection of tailskin grafts in mice, graft survival (Example B); assay type: in vivo, mice (CBA strain donors, Lac/a strain recipients)
Method: The tailskin grafting method of Bailey and Usania (Transplantation Bulletin 7, 424-5, 1960) was used.
Sections of tailskin from donor CBA strain mice (agonti) were grafted onto the tails of 16 Lac/a strain mice (albino). Test compound was given from 2 days prior to grafting until graft loss at a dose of 50 mg/kg/day in 1% "Tween 80"/saline vehicle by the intraperitoneal route. Graft condition was assessed daily and mean graft survival time (days) of vehicle, and drug tested groups, was compared.

[1] = tested on: delayed hypersensitivity reaction to PPD; experiment: Delayed hypersensitivity reaction to PPD in guinea pigs, topical under occlusion (Example C); assay type: in vivo; settings: for % Inhibition 24h after challenge: Diameter of erythema / % Inhibition 24h after challenge: Erythema score / % Inhibition 24h after challenge: Increase in skin thickness: topical under occlusion, n=6
Method: Male guinea pigs weighing 250-300 g were sensitised by a subcutaneous injection of Freunds Complete Adjuvant (Difco) in saline. Fourteen days following sensitisation animals were challenged intradermally into a shaved flank with 50 μg of purified protein derivative PPD (in 0.1 ml of saline). Changes in skin thickness were determined immediately before and 24 h and 48 h after antigen challenge. In addition, the diameter of reaction and a semiquantitative estimate of the degree of erythema were determined at 24 h and 48 h.
The compound of Example 1 was applied topically under an occlusive dressing. This consisted of adding a solution of the compound in dimethylacetamide (0.3 ml) to a filter paper square (4×4 cm) backed by surgical tape placed on the challenge site and held in place by adhesive bandage encircling the torso of the animal. The dressing was applied 10 min after challenge and removed 24 h later. Control animals received dimethylacetamide alone to the challenge site.
The effect of the compound of Example 1 applied under occlusion, with antigen challenge, on the delayed hypersensitivity reaction to PPD in guinea pigs (n=6)

[2] = tested on: delayed contact sensitivity to oxazolone (increase of ear thickness); experiment: Delayed contact sensitivity to oxazolone in mice (Example A); assay type: in vivo; settings: for inhibition of increased ear thickness: 24 hours after challenge
Method: This response is a measure of a cell-mediated immune response which is dependent on the activity of thymus-derived lymphocytes. Mice are sensitised with 100 μl of oxazolone and are subsequently challenged with 15 μl of 3% oxazolone on their right ears on day 7. The resulting cell-mediated response is measured 24 hours after challenge by assessing the increase of ear thickness using a dial gauge. The unchallenged left ears act as controls.

COc1ccc2c(c1)sc1nc(N)nc(=Nc3ccccc3)n12 [Example 1, 2-Amino-8-methoxy-4-phenylimino-4H-1,3,5-triazino[2,1-b]benzothiazole]
prolongation of skin graft survival (rejection of skin grafts; 50 mg/kg/day intraperitoneal from 2 days prior to grafting until graft loss, versus vehicle, significant): 2.5 days | suppression of the rejection of skin grafts (rejection of skin grafts; mice, result in words): suppress the rejection of skin grafts in mice | % Inhibition 24h after challenge: Diameter of erythema ([1]; 1% in dimethylacetamide): 5% | % Inhibition 24h after challenge: Erythema score ([1]; 1% in dimethylacetamide): 20% | % Inhibition 24h after challenge: Increase in skin thickness ([1]; 1% in dimethylacetamide): 20% | inhibition of the increase in skin thickness ([1]; 1 to 3% in dimethylacetamide, 24 hours post challenge, result in words): dose dependent inhibition of the increase in skin thickness | reaction diameters and erythema scores ([1]; 1 to 3% in dimethylacetamide, compared with dimethylacetamide controls, result in words): significantly reduced the reaction diameters and erythema scores | % Inhibition 24h after challenge: Diameter of erythema ([1]; 2% in dimethylacetamide): 16% | % Inhibition 24h after challenge: Erythema score ([1]; 2% in dimethylacetamide): 32% | % Inhibition 24h after challenge: Increase in skin thickness ([1]; 2% in dimethylacetamide): 35% | % Inhibition 24h after challenge: Diameter of erythema ([1]; 3% in dimethylacetamide): 34% | % Inhibition 24h after challenge: Erythema score ([1]; 3% in dimethylacetamide): 63% | % Inhibition 24h after challenge: Increase in skin thickness ([1]; 3% in dimethylacetamide): 50% | suppression of delayed hypersensitivity reaction ([1]; guinea pigs, dosed topically, result in words): suppress a delayed hypersensitivity reaction in guinea pigs | inhibition of delayed contact sensitivity to oxazolone ([2]; mice, result in words): inhibit a delayed contact sensitivity to oxazolone in mice | inhibition of increased ear thickness ([2]; single dose 50 mg/kg intraperitoneal on day 1 relative to sensitisation): 44% | inhibition of increased ear thickness ([2]; single dose 50 mg/kg intraperitoneal on day 2 relative to sensitisation): 44% | inhibition of increased ear thickness ([2]; single dose 50 mg/kg intraperitoneal on day 3 relative to sensitisation): 49% | inhibition of increased ear thickness ([2]; single dose 50 mg/kg intraperitoneal on day 7 relative to sensitisation): 61% | inhibition of increased ear thickness ([2]; single dose 50 mg/kg intraperitoneal on one of days -1, 0, 1, 2, 3 or 7 relative to sensitisation, result in words): inhibition of increased ear thickness
